Source: patent US9604945B2, “Sydnonimines-specific dopamine reuptake inhibitors and their use in treating dopamine related disorders” (priority 2007, dated 2017)

What was measured:
mice = assay: Irwin behavioral battery; assay type: in vivo, mouse; details: FIGS. 7A-7C
Protocol: To further characterize the pharmacological effects of these compounds, Irwin behavioral battery testing was performed.
Testing occurred towards the end of the light cycle between 8-11 a.m. (lights go off at 11:00 a.m.). The mice were acclimated to the testing room for at least 30 minutes. The Irwin test equipment (timer, viewing jar and support, open arena, grid, ruler, sound box, wood stocks, kimwipes box) was placed under a laminar flow hood. The mouse was first placed in the viewing jar for five (5) minutes and the following parameters were scored:
At the end of the 5-minute period, the viewing jar with the muose in it was transferred to the arena, where the jar was disassembled and the mouse released into the arena. The mouse was not handled by the experimenter. The following parameters were scored in the arena in the following order:
Then the mouse was picked up by its tail and kept above the arena to score the following set of parameters:
The mouse was then placed in supine restraint to score the below parameters in the following order:
The final three parameters were scored with the mouse above or in the arena: […]

[1] = Brain drug concentration by different routes of administration; assay type: in vivo, C57BL/6 mice; details: for Brain Drug Concentration: time 0 (pre-dose); for concentration at 5 min / concentration at 15 min / concentration at 30 min / concentration at 60 min / concentration at 120 min / concentration at 240 min / concentration at 480 min: C57BL/6, mouse, brain
Protocol: The following materials and methods are provided to facilitate the practice of Example 9, in which drug concentration in certain biological samples were assessed using different routes of administration.
Parameters Used in Dosing and Drug Administration of the Compound of Example 3:
Adult C57BL/6 mice (preferred 16 weeks old).
Three mice per time point. If all three routes are conducted in same day, one group of pre-dose is efficient.
In the studies using adult C57BL/6 mice (preferably approximately 16 weeks old), dosing and drug administration parameters for the compound of Example 3 were explored. Clearly, the compound is suitable for oral administration and lasts in the plasma up to 2-3 hours.

male mice = assay: Accelerating rotarod assay; assay type: in vivo, mouse; details: 10 and 90 mg/kg, FIG. 11
Protocol: Rotarod assays were also performed using the experimental protocol and design set forth below. Individually housed male mice aged 8-12 weeks were used for this experiment. Mice were maintained on a reverse L:D/12 p.m.: 12 a.m. cycle in a barrier facility with food and water available ad libitum. Testing occurred towards the end of the light cycle between 6-12 a.m. Mice were acclimated to the testing room for at least 30 minutes.
The assay was carried out using four EzRod test chambers kept in a laminar hood for testing. For the accelerating rotarod paradigm, mice were given 10 trials with the maximum duration of 3 minute and a 30-second intertrial interral (ITI). Each mouse was placed on the EZRod machines and the latency to fall was recorded for all trials. If the mouse fell or 3 minutes elapsed, the mouse was left in the bottom of the EzRod test chamber for 30 seconds before starting the next trial.
The latency to fall was compared between the two groups by analysis of variance (ANOVA) with repeated measures.

SMILES: Cc1ccc(C[n+]2[cH-]/c(=N\C(=O)Nc3ccccc3)on2)cc1 [Example 3, N-phenylcarbamoyl-3-(p-methyl-benzyl)-sydnonimine]
- Behavioral effects in Irwin Behavioral Battery (spontaneous activity, grip strength, limb tone) (mice): induced significant behavioral effects
- Brain Drug Concentration ([1]; 10 mg/kg (IP)): 0.00 ng/mL
- Brain Drug Concentration ([1]; 10 mg/kg (IV)): 95.10 ng/mL
- Brain Drug Concentration ([1]; 10 mg/kg (PO)): 107.55 ng/mL
- Brain Drug Concentration ([1]; 30 mg/kg (PO)): 123.97 ng/mL
- concentration at 5 min ([1]; intraperitoneal, 10 mg/kg (IP)): 1460 ng/mL
- concentration at 15 min ([1]; intraperitoneal, 10 mg/kg (IP)): 374 ng/mL
- concentration at 30 min ([1]; intraperitoneal, 10 mg/kg (IP)): 242 ng/mL
- concentration at 60 min ([1]; intraperitoneal, 10 mg/kg (IP)): 190 ng/mL
- concentration at 120 min ([1]; intraperitoneal, 10 mg/kg (IP)): 70.2 ng/mL
- concentration at 240 min ([1]; intraperitoneal, 10 mg/kg (IP)): 143 ng/mL
- concentration at 480 min ([1]; intraperitoneal, 10 mg/kg (IP)): 123 ng/mL
- concentration at 5 min ([1]; 10 mg/kg (IV)): 2310 ng/mL
- concentration at 15 min ([1]; 10 mg/kg (IV)): 1720 ng/mL
- concentration at 30 min ([1]; 10 mg/kg (IV)): 1140 ng/mL
- concentration at 60 min ([1]; 10 mg/kg (IV)): 464 ng/mL
- concentration at 120 min ([1]; 10 mg/kg (IV)): 78.7 ng/mL
- concentration at 240 min ([1]; 10 mg/kg (IV)): 178 ng/mL
- concentration at 480 min ([1]; 10 mg/kg (IV)): 49 ng/mL
- concentration at 5 min ([1]; 10 mg/kg (PO)): 418 ng/mL
- concentration at 15 min ([1]; 10 mg/kg (PO)): 298 ng/mL
- concentration at 30 min ([1]; 10 mg/kg (PO)): 150 ng/mL
- concentration at 60 min ([1]; 10 mg/kg (PO)): 158 ng/mL
- concentration at 120 min ([1]; 10 mg/kg (PO)): 165 ng/mL
- concentration at 240 min ([1]; 10 mg/kg (PO)): 97.5 ng/mL
- concentration at 480 min ([1]; 10 mg/kg (PO)): 163 ng/mL
- concentration at 5 min ([1]; 30 mg/kg (PO)): 869 ng/mL
- concentration at 15 min ([1]; 30 mg/kg (PO)): 845 ng/mL
- concentration at 30 min ([1]; 30 mg/kg (PO)): 627 ng/mL
- concentration at 60 min ([1]; 30 mg/kg (PO)): 218 ng/mL
- concentration at 120 min ([1]; 30 mg/kg (PO)): 203 ng/mL
- concentration at 240 min ([1]; 30 mg/kg (PO)): 183 ng/mL
- concentration at 480 min ([1]; 30 mg/kg (PO)): 168 ng/mL
- Brain penetration ([1]; administered orally or via intravenous administration): reaches the brain
- Rotarod performance (male mice): did not affect rotarod performance
